# According to patent US10813944B2, “Cyclodextrins as procoagulants” (STICHTING SANQUIN BLOEDVOORZIENING, priority 2016, dated 2020):
# Key:
# VKA plasma = test: Thrombin generation in plasma of individuals taking vitamin K antagonists (VKA plasma); assay type: biochemical, human; settings: two intensities of treatment (INR); 1 pM TF
# Source text: FIG. 11: Plasma was used from individuals taking vitamin K-antagonists (VKA plasma). Two different intensities of treatment (given as INR) were available, as depicted in (A) and (B). The plasmas were subjected to thrombin generation analysis as described in the Materials and Methods section with 1 pM tissue factor (TF) as initiator of coagulation.
# (§1) The Calibrated Automated Thrombogram® assays the generation of thrombin in clotting plasma using a microtiter plate reading fluorometer (Fluoroskan Ascent, ThermoLab systems, Helsinki, Finland) and Thrombinoscope® software (Thrombinoscope BV, Maastricht, The Netherlands). The assay was carried out as described by Hemker et al. (Pathofysiol. IIaemost. Thromb. 2003, 33, 4-15), and the Thrombinoscope® manual. Coagulation was triggered by recalcification in the presence of 1 or 5 pM recombinant human tissue factor (Innovin®, Siemens, Marburg, Germany), 4 μM phospholipids, and 417 μM fluorogenic substrate Z-Gly-Gly-Arg-AMC (Bachem, Bubendorf, Switzerland). Fluorescence was monitored using the Fluoroskan Ascent fluorometer (ThermoLabsystems, Helsinki, Finland), and the lag time, peak thrombin, velocity index and area under the curve (ETP) were calculated using the Thrombinoscope® software (Thrombinoscope BV).
# Hemophilia A mice = test: In vivo vena saphena bleeding model in hemophilia A mice
# Source text: FIG. 30: Effect of OKL-1111 and OKL-1187 on coagulation in mouse hemophilia A assay.
# All animal protocols were approved by the Institutional Animal Care and Use Committee of the University of North Carolina. C57BL6/J mice were purchased from Charles Rivers Laboratories (Willmington, Mass.). Bleeding studies were done essentially as previously described Pastoft et al. (Haemophilia 2012; 18:782-8). Mice were anesthetized with isoflurane throughout all procedures. The hair on the ventral side of both hind limbs was removed. The animals were placed supine on a temperature and ECG monitoring board. The paws were gently restrained by looping soft polyethylene tubing around them and attaching the tubing to the ECG board. The skin on the left and right ventral hind limb was incised which exposes a length of the saphenous neurovascular bundle; the bundle was covered with normal saline to prevent drying. To assess haemostasis, the right saphenous vein was transected by piercing it with a 23-G needle followed by a longitudinal incision made in the distal portion of the vessel. Blood was gently wicked away until haemostasis occurred. The clot was then removed to restart bleeding and the blood was again wicked away until haemostasis occurs again. […] Two parameters were measured: 1) the number of times that haemostasis occurs in a 30 minute period, and 2) the time required for each haemostasis. […]
# [1] = system: normal human plasma pretreated with inhibitory antibodies against factor IX; test: Thrombin generation in normal plasma spiked with inhibitory antibodies against factor IX; assay type: biochemical; settings: antibody 5F5 20 μg/ml; 1 pM TF
# Description: as §1
# (§2) Normal plasma was spiked with inhibitory antibodies against factor VIII (Sanquin, VK34, 14 μg/ml), factor IX (Sanquin, 5F5, 20 μg/ml) or factor XI (Sanquin, mix of #203 and #175, 75 μg/ml). The effect of OKL-1111 was tested in thrombin generation assay using 1 pM tissue factor (TF). This model is representative for hemophilia A, B and C patients that have developed inhibitory antibodies against plasma-derived or recombinant factor VIII or IX or XI they are treated with.
# [2] = system: plasma deficient in coagulation factor VIII; test: Thrombin generation assay in plasma deficient in coagulation factor VIII; assay type: biochemical, human
# Description: FIG. 20: Plasma deficient in coagulation factor VIII was spiked with cyclodextrin OKL-1111 (A), OKL-1180 (B), and OKL-1187 (C) at the indicated concentrations.
# as §1
# [3] = system: normal human plasma pretreated with inhibitory antibodies against factor XI; test: Thrombin generation in normal plasma spiked with inhibitory antibodies against factor XI; assay type: biochemical; settings: mix of #203 and #175, 75 μg/ml; 1 pM TF
# Description: as §1, §2
# [4] = system: normal human plasma pretreated with inhibitory antibodies against factor VIII; test: Thrombin generation in normal plasma spiked with inhibitory antibodies against factor VIII; assay type: biochemical; settings: antibody VK34 14 μg/ml; 1 pM TF
# Description: as §1, §2
# [5] = system: human plasma deficient in coagulation factor XI; test: Thrombin generation assay in human plasma deficient in coagulation factor XI; assay type: biochemical
# Description: as §1
# [6] = system: thrombin generation in pooled normal plasma spiked with anticoagulants; test: Thrombin generation assay in pooled normal plasma spiked with anticoagulants; assay type: biochemical, human; settings: 1 pM TF
# Description: FIGS. 3-8, 12, 14-19 and 22-27: Pooled normal plasma was spiked with cyclodextrins (100 μM, unless otherwise indicated) and anticoagulants. The concentrations of the anticoagulants were 100 ng/ml for dabigatran (A), 100 ng/ml for rivaroxaban (B), 60 ng/ml for apixaban (C), 60 ng/ml for edoxaban (D). The plasmas were subjected to thrombin generation analysis as described in the Materials and Methods section with 1 pM tissue factor (TF) as initiator of coagulation.
# FIG. 9: Pooled normal plasma was spiked with OKL-1111 (100 μM, unless otherwise indicated (A)) and anticoagulants (B-E). The concentrations of the anticoagulants were 100 ng/ml for dabigatran (B), 100 ng/ml for rivaroxaban (C), 60 ng/ml for apixaban (D), 60 ng/ml for edoxaban (E). The plasmas were subjected to thrombin generation analysis as described in the Materials and Methods section with 1 pM tissue factor (TF) as initiator of coagulation.
# FIG. 10: Pooled normal plasma was spiked with OKL-1111 (100 μM) and anticoagulants (A-F). The concentrations of the anticoagulants were 2 μg/ml for fondaparinux (A), 0.4 U/ml for nadroparin (B), 0.1 U/ml for tinzaparin (C), 0.03 U/ml for unfractionated heparin (UFH) (D), 0.5 U/ml for hirudin (E) and 10 μg/ml for bivalirudin (F). The plasmas were subjected to thrombin generation analysis as described in the Materials and Methods section with 1 pM tissue factor (TF) as initiator of coagulation.
# as §1
# [7] = system: plasma deficient in coagulation factor IX; test: Thrombin generation assay in plasma deficient in coagulation factor IX; assay type: biochemical, human
# Description: as §1
smiles,measurement,setting,value
O=C(O)CCCCCSCC1OC2OC3C(CSCCCCCC(=O)O)OC(OC4C(CSCCCCCC(=O)O)OC(OC5C(CSCCCCCC(=O)O)OC(OC6C(CSCCCCCC(=O)O)OC(OC7C(CSCCCCCC(=O)O)OC(OC8C(CSCCCCCC(=O)O)OC(OC9C(CSCCCCCC(=O)O)OC(OC1C(O)C2O)C(O)C9O)C(O)C8O)C(O)C7O)C(O)C6O)C(O)C5O)C(O)C4O)C(O)C3O (stereo not drawn) [OKL-1111],thrombin generation in plasma of patients using vitamin K antagonists,VKA plasma,could be improved
same,hemostasis compared to factor VIII alone,Hemophilia A mice; factor VIII 2.5 IU/kg plus OKL-1111 1 μmol/kg,significantly higher
same,number of clots formed over a 30 minute period,Hemophilia A mice; factor VIII 2.5 IU/kg plus OKL-1111 1 μmol/kg (designed to give 25 μM in plasma),7-9 clots
same,thrombin generation in plasma with inhibitory antibodies against factor IX,[1],concentration-dependently stimulated thrombin generation
same,procoagulant effect in factor VIII deficient plasma,[2],stimulate coagulation significantly
same,thrombin generation in plasma with inhibitory antibodies against factor XI,[3],concentration-dependently stimulated thrombin generation
same,thrombin generation in plasma with inhibitory antibodies against factor VIII,[4],concentration-dependently stimulated thrombin generation
same,stimulation of coagulation in factor XI deficient plasma,[5],stimulate coagulation significantly
same,restoring thrombin generation in plasma anticoagulated with unfractionated heparin,"[6]; UFH 0.03 U/ml, OKL-1111 100 μM",capable of restoring thrombin generation
same,effect on the anticoagulant effect of apixaban,"[6]; apixaban 60 ng/ml, cyclodextrin 100 μM",restoration of thrombin generation to levels far above that of non-anticoagulated plasma
same,restoring thrombin generation in plasma anticoagulated with bivalirudin,"[6]; bivalirudin 10 μg/ml, OKL-1111 100 μM",capable of restoring thrombin generation
same,effect on the anticoagulant effect of dabigatran,"[6]; dabigatran 100 ng/ml, cyclodextrin 100 μM",restoration of thrombin generation to levels far above that of non-anticoagulated plasma
same,effect on the anticoagulant effect of edoxaban,"[6]; edoxaban 60 ng/ml, cyclodextrin 100 μM",restoration of thrombin generation to levels far above that of non-anticoagulated plasma
same,restoring thrombin generation in plasma anticoagulated with pentasaccharide (arixtra),"[6]; fondaparinux 2 μg/ml, OKL-1111 100 μM",capable of restoring thrombin generation
same,restoring thrombin generation in plasma anticoagulated with hirudin,"[6]; hirudin 0.5 U/ml, OKL-1111 100 μM",capable of restoring thrombin generation
same,restoring thrombin generation in plasma anticoagulated with low molecular weight heparin,"[6]; nadroparin 0.4 U/ml, tinzaparin 0.1 U/ml, OKL-1111 100 μM",capable of restoring thrombin generation
same,effect on the anticoagulant effect of rivaroxaban,"[6]; rivaroxaban 100 ng/ml, cyclodextrin 100 μM",restoration of thrombin generation to levels far above that of non-anticoagulated plasma
same,procoagulant activity in factor IX deficient plasma,[7],stimulate coagulation significantly
